Assay results as given in patent US8143288B2, “Inhibitors of HCV replication” (priority 2005, dated 2012).

The compounds below were run on HCV 1b-377-neo replicon cells (assay: HCV replicon FRET assay). Conditions: Hepatitis C virus, read-out: Activity (EC50).
Assay type: cell-based
Description: The HCV replicon cell line was isolated from colonies as described by Lohman, et. al. (Science 1999, 285, 110-113, expressly incorporated by reference in its entirety) and used for all experiments. The HCV replicon has the nucleic acid sequence set forth in EMBL Accession No.: AJ242652, the coding sequence of which is from nt 1801 to 7758.
The coding sequence of the published HCV replicon was synthesized by Operon Technologies, Inc. (Alameda, Calif.), and the fall-length replicon was then assembled in plasmid pGem9zf(+) (Promega, Madison, Wis.) using standard molecular biology techniques. The replicon consists of (i) the HCV 5′ UTR fused to the first 12 amino acids of the capsid protein, (ii) the neomycin phosphotransferase gene (neo), (iii) the IRES from encephalomyocarditis virus (EMCV), and (iv) HCV NS3 to NS5B genes and the HCV 3′ UTR. Plasmid DNAs were linearized with ScaI and RNA transcripts were synthesized in vitro using the T7 MegaScript transcription kit (Ambion, Austin, Tex.) according to manufacturer's directions.
To generate cell lines, 4×10^6 Huh-7 cells (kindly provided by R. Bartenschlager and available from Health Science Research Resources Bank, Japan Health Sciences Foundation) were electroporated (GenePulser System, Bio-Rad) with 10 micrograms(“μg”) of RNA transcript and plated into 100-mm dishes. After 24 hours, selective media containing 1.0 milligrams/milliliter (“mg/mL”) G418 was added and media was changed every 3 to 5 days. […] These cell lines were maintained at 37° C., 5% CO2, 100% relative humidity in DMEM (Cat#11965-084) Gibco-BRL, Rockville, Md., with 10% heat inactivated calf serum (Sigma), 10 mL of 100× penicillin/streptomycin (Cat#15140-122) Gibco-BRL, Rockville, Md., Geneticin (Cat#10131-027) Gibco-BRL, Rockville, Md. at 1 mg/mL. One of the cell lines (deposited as ATCC Accession No. PTA-4583 in the American Type Culture Collection) which had approximately 3,000 copies of HCV replicon RNA/cell was used for development of the assay (HCV 1b-377-neo replicon cells).
To perform the HCV FRET screening assay, 96-well cell culture plates were used. The FRET peptide (Anaspec, Inc., San Jose, Calif.) (Taliani et al., Anal. Biochem. 1996, 240, 60-67, hereby incorporated by reference in its entirety) contains a fluorescence donor, EDANS, near one end of the peptide and an acceptor, DABCYL, near the other end. The fluorescence of the peptide is quenched by […] resonance energy transfer (RET) between the donor and the acceptor, but as the NS3 protease cleaves the peptide the products are released from RET quenching and the fluorescence of the donor becomes apparent.
The assay reagent was made as follows: 5X luciferase cell culture lysis (Cat#E153A, Promega, Madison, Wis.) diluted to 1X with dH2O, NaCl added to […] final, the FRET peptide diluted to 20 micromolar (“μM”) final from a 2 mM stock. HCV 1b-377-neo replicon cells were trypsinized, placed into each well of a 96-well plate and allowed to attach overnight. The next day, the test compounds were added to columns 1 through 10; column 11 was media plus DMSO only, and column 12 contained a titration of interferon or an HCV specific inhibitor as a control (1000 units for A12, B12, 100 units for C12, D12, 10 units for E12, F12 and 1 unit for G12, H12). […] In addition, naïve Huh-7 cells could also be used to replace wells A12 and B12 as a background control.
At subsequent various times (typically 72 hours), 10% final volume Alamar blue (Cat#00-100, Trek Diagnostics, Cleveland, Ohio) was added to each well. The plates were returned to the incubator for 5 hours and then read in the Cytoflour (PE Biosystems) to determine Alamar blue conversion in each well as a measure of cellular toxicity.
Compound `CC(C)(C)OC(=O)Nc1ccccc1C(=O)N1CCC[C@H]1C(=O)Nc1ccc(/C=C/c2ccc(NC(=O)[C@@H]3CCCN3C(=O)c3ccccc3NC(=O)OC(C)(C)C)cc2)cc1` [Example 150] has an EC50 of 1000 to 10000 nM.

Same assay, conditions: Hepatitis C virus; HCV replicon; read-out: Activity (EC50)
For `O=C(Nc1ccc(/C=C/c2ccc(NC(=O)[C@@H]3CCCN3C(=O)C3CC(=O)N(CCc4cccs4)C3)cc2)cc1)[C@@H]1CCCN1C(=O)C1CC(=O)N(CCc2cccs2)C1` (stereo partly shown) [Example 156], the EC50 was 1000 to 10000 nM.
`O=C(Nc1ccc(/C=C/c2ccc(NC(=O)[C@@H]3CCCN3C(=O)C3CCC3)cc2)cc1)[C@@H]1CCCN1C(=O)c1cccnc1` [Example 88] gave an EC50 of 0.1 to 90 nM.
With `CC(C)(C)CC(=O)N1CCC[C@H]1C(=O)Nc1ccc(/C=C/c2ccc(NC(=O)[C@@H]3CCCN3C(=O)CC(C)(C)C)cc2)cc1` [Example 48] the EC50 was 100 to 1000 nM.
`CCC(C)NC(=O)O[C@@H]1C[C@@H](C(=O)Nc2ccc(/C=C/c3ccc(NC(=O)[C@@H]4C[C@@H](O)CN4C(=O)OCc4ccccc4)cc3)cc2)N(C(=O)OCc2ccccc2)C1` (stereo partly shown) [Example 245] showed an EC50 of 1000 to 10000 nM.
With `O=C(Nc1ccc(/C=C/c2ccc(NC(=O)[C@@H]3C=CCN3C(=O)C3CCC3)cc2)cc1)[C@@H]1C=CCN1C(=O)C1CCC1` [Example 74] the EC50 was 100 to 1000 nM.
In the case of `O=C(Nc1ccc(/C=C\c2ccc(NC(=O)[C@@H]3CCCN3C(=O)OCc3ccccc3)cc2)cc1)[C@@H]1CCCN1C(=O)OCc1ccccc1` [Example 6], the EC50 is reported as 0.1 to 90 nM.
For `O=C1N[C@H]2[C@H](CS[C@H]2CCCCC(=O)N2CCC[C@H]2C(=O)Nc2ccc(/C=C/c3ccc(NC(=O)[C@@H]4CCCN4C(=O)Cc4ccccc4)cc3)cc2)N1` [Example 109], the EC50 was 0.1 to 90 nM.
For `Cc1cc(CC(=O)N2CCC[C@H]2C(=O)Nc2ccc(/C=C/c3ccc(NC(=O)[C@@H]4CCCN4C(=O)Cc4cc(C)no4)cc3)cc2)on1` [Example 36], the EC50 was 0.1 to 90 nM.
`Cc1ccc(C(=O)N2CCC[C@H]2C(=O)Nc2ccc(/C=C/c3ccc(NC(=O)[C@@H]4CCCN4C(=O)c4ccc(C)nc4)cc3)cc2)cn1` [Example 80] showed an EC50 of 100 to 1000 nM.
`CC(=O)N1CCC[C@H]1C(=O)Nc1ccc(/C=C/c2ccc(NC(=O)[C@@H]3CCCN3C(=O)Cc3ccccc3)cc2)cc1` [Example 258] gave an EC50 of 0.1 to 90 nM.
Compound `O=C(Nc1ccc(/C=C/c2ccc(NC(=O)[C@@H]3CCCN3C(=O)c3ccccc3Cc3ccccc3)cc2)cc1)[C@@H]1CCCN1C(=O)c1ccccc1Cc1ccccc1` [Example 171] has an EC50 of 100 to 1000 nM.
Compound `CCC(=O)N1CCC[C@H]1C(=O)Nc1ccc(/C=C/c2ccc(NC(=O)[C@@H]3CCCN3C(=O)CC)cc2)cc1` [Example 46] has an EC50 of 100 to 1000 nM.
In the case of `O=C(Nc1ccc(/C=C/c2ccc(NC(=O)[C@@H]3CCCN3C(=O)Cc3c[nH]cn3)cc2)cc1)[C@@H]1CCCN1C(=O)Cc1c[nH]cn1` [Example 42], the EC50 is reported as 1000 to 10000 nM.
`O=C(Nc1ccc(/C=C/c2ccc(NC(=O)[C@@H]3C[C@@H](O)CN3C(=O)OCc3ccccc3)cc2)cc1)[C@@H]1C[C@@H](O)CN1C(=O)OCc1ccccc1` [Example 4] was tested, and the EC50 was 0.1 to 90 nM.
`O=C(Nc1ccc(/C=C/c2ccc(NC(=O)[C@@H]3CCCN3C(=O)[C@@H]3CCCO3)cc2)cc1)[C@@H]1CCCN1C(=O)[C@@H]1CCCO1` [Example 111] was tested, and the EC50 was 100 to 1000 nM.
`Cn1cnc(CC(=O)N2CCC[C@H]2C(=O)Nc2ccc(/C=C/c3ccc(NC(=O)[C@@H]4CCCN4C(=O)Cc4cn(C)cn4)cc3)cc2)c1` [Example 41] gave an EC50 of 0.1 to 90 nM.
`O=C(Nc1ccc(/C=C/c2ccc(NC(=O)[C@@H]3CCCN3C(=O)c3ccncc3)cc2)cc1)[C@@H]1CCCN1C(=O)c1ccncc1` [Example 58] showed an EC50 of 0.1 to 90 nM.
For `O=C(Nc1ccc(/C=C/c2ccc(NC(=O)[C@@H]3CCCN3C(=O)c3cc(F)ccc3F)cc2)cc1)[C@@H]1CCCN1C(=O)c1cc(F)ccc1F` [Example 108], the EC50 was 100 to 1000 nM.
`O=C(Nc1ccc(/C=C/c2ccc(NC(=O)[C@@H]3CCCN3C(=O)Cc3ccccc3OCc3ccccc3)cc2)cc1)[C@@H]1CCCN1C(=O)Cc1ccccc1OCc1ccccc1` [Example 167] was tested, and the EC50 was 1000 to 10000 nM.
Compound `O=C(Nc1ccc(/C=C/c2ccc(NC(=O)[C@@H]3CCCN3C(=O)[C@H]3CCCO3)cc2)cc1)C1CC1` [Example 260] has an EC50 of 100 to 1000 nM.
`COc1cccc(C(=O)N2CCC[C@H]2C(=O)Nc2ccc(/C=C/c3ccc(NC(=O)[C@@H]4CCCN4C(=O)c4cccc(OC)c4)cc3)cc2)c1` [Example 32] was tested, and the EC50 was 0.1 to 90 nM.
With `CCC(C)NC(=O)O[C@@H]1C[C@@H](C(=O)Nc2ccc(/C=C/c3ccc(NC(=O)[C@@H]4C[C@@H](OC(=O)NC(C)CC)CN4C(=O)OCc4ccccc4)cc3)cc2)N(C(=O)OCc2ccccc2)C1` (stereo partly shown) [Example 249] the EC50 was 1000 to 10000 nM.
For `O=C(Nc1ccc(/C=C/c2ccc(NC(=O)C3CC(=O)N(CCc4cccs4)C3)cc2)cc1)C1CC(=O)N(CCc2cccs2)C1` (stereo not shown) [Example 14], the EC50 was 1000 to 10000 nM.
For `N#CC1(C(=O)N2CCC[C@H]2C(=O)Nc2ccc(/C=C/c3ccc(NC(=O)[C@@H]4CCCN4C(=O)C4(C#N)CC4)cc3)cc2)CC1` [Example 66], the EC50 was 0.1 to 90 nM.
`CCN(CC)C(=O)N1CCC[C@H]1C(=O)Nc1ccc(/C=C/c2ccc(NC(=O)[C@@H]3CCCN3C(=O)N(CC)CC)cc2)cc1` [Example 289] gave an EC50 of 0.1 to 90 nM.
`O=C(Nc1ccc(/C=C/c2ccc(NC(=O)[C@@H]3CCCN3C(=O)c3ncccc3-c3ccc(Cl)cc3)cc2)cc1)[C@@H]1CCCN1C(=O)c1ncccc1-c1ccc(Cl)cc1` [Example 230] was tested, and the EC50 was 100 to 1000 nM.
In the case of `O=C(Nc1ccc(/C=C/c2ccc(NC(=O)[C@@H]3CCCN3C(=O)c3cccnc3Cl)cc2)cc1)[C@@H]1CCCN1C(=O)c1cccnc1Cl` [Example 191], the EC50 is reported as 1000 to 10000 nM.
With `C[C@H](NC(=O)Cc1ccccc1)C(=O)Nc1ccc(/C=C/c2ccc(NC(=O)[C@@H]3CCCN3C(=O)Cc3ccccc3)cc2)cc1` [Example 271] the EC50 was 0.1 to 90 nM.
Work on `CCc1cccc(CC)c1C(=O)N1CCC[C@H]1C(=O)Nc1ccc(/C=C/c2ccc(NC(=O)[C@@H]3CCCN3C(=O)c3c(CC)cccc3CC)cc2)cc1` [Example 205] yielded an EC50 of 1000 to 10000 nM.
For `O=C(Nc1ccc(/C=C/c2ccc(NC(=O)[C@@H]3CCCN3C(=O)Cc3ccccc3)cc2)cc1)c1ccccc1NCc1ccccc1` [Example 267], the EC50 was 100 to 1000 nM.
Work on `Cc1nc2sccn2c1C(=O)N1CCC[C@H]1C(=O)Nc1ccc(/C=C/c2ccc(NC(=O)[C@@H]3CCCN3C(=O)c3c(C)nc4sccn34)cc2)cc1` [Example 214] yielded an EC50 of 0.1 to 90 nM.
Compound `CC(Oc1cccc(Cl)c1)C(=O)N1CCC[C@H]1C(=O)Nc1ccc(/C=C/c2ccc(NC(=O)[C@@H]3CCCN3C(=O)C(C)Oc3cccc(Cl)c3)cc2)cc1` (stereo partly shown) [Example 29] has an EC50 of 100 to 1000 nM.
For `CC(=O)N1CCC[C@H]1C(=O)Nc1ccc(/C=C/c2ccc(NC(=O)[C@@H]3CCCN3C(=O)Cc3ccccn3)cc2)cc1` [Example 49], the EC50 was 0.1 to 90 nM.
Work on `O=C(Nc1ccc(/C=C/c2ccc(NC(=O)[C@@H]3Cc4ccccc4N3C(=O)OCc3ccccc3)cc2)cc1)[C@@H]1Cc2ccccc2N1C(=O)OCc1ccccc1` [Example 19] yielded an EC50 of 0.1 to 90 nM.
`CN(C)C(=O)N1CCC[C@H]1C(=O)Nc1ccc(/C=C/c2ccc(NC(=O)[C@@H]3CCCN3C(=O)N(C)C)cc2)cc1` [Example 288] showed an EC50 of 100 to 1000 nM.
`Cc1cccc(C(=O)N2CCC[C@H]2C(=O)Nc2ccc(/C=C/c3ccc(NC(=O)[C@@H]4CCCN4C(=O)c4cccc(C)n4)cc3)cc2)n1` [Example 114] was tested, and the EC50 was 100 to 1000 nM.
`O=C(Nc1ccc(/C=C/c2ccc(NC(=O)[C@@H]3CCCN3C(=O)Cc3ccccc3)cc2)cc1)[C@@H]1CCCN1` [Example 252] showed an EC50 of 1000 to 10000 nM.
For `CC(=O)N1CC=C[C@H]1C(=O)Nc1ccc(/C=C/c2ccc(NC(=O)[C@@H]3C=CCN3C(C)=O)cc2)cc1` [Example 217], the EC50 was 0.1 to 90 nM.
With `CCOc1ccccc1CC(=O)N1CCC[C@H]1C(=O)Nc1ccc(/C=C/c2ccc(NC(=O)[C@@H]3CCCN3C(=O)Cc3ccccc3OCC)cc2)cc1` [Example 173] the EC50 was 1000 to 10000 nM.
